Consider one compound from article PMC6428421 (Nature cell biology, 2019).

The test has as its target IRAK1 (Homo sapiens, UniProt P51617). Nature of the test: KINOMEScan competition kinase-binding assay.

Chain of IRAK1 (P51617 whole entry): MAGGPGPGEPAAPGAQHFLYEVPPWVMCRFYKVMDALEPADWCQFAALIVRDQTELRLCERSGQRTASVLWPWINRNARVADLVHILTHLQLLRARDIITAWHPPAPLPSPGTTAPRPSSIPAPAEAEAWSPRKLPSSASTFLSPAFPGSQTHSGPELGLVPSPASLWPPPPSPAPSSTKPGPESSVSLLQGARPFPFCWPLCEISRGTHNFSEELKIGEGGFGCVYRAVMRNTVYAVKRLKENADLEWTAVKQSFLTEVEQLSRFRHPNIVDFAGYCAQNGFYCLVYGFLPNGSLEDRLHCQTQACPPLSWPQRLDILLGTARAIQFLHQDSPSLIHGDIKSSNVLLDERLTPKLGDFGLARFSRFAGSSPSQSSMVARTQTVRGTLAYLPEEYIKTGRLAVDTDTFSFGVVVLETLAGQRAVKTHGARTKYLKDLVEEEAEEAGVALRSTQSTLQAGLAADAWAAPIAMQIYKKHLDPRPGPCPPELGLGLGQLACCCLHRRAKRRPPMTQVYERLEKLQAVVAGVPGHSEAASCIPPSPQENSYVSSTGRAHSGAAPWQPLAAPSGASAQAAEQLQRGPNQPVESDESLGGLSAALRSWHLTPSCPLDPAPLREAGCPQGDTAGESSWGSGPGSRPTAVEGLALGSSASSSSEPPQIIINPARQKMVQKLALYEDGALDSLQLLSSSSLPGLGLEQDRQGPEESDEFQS

One may read the Kd as the concentration at which binding is half-saturated. The compound `COC(=O)Nc1nc2ccc([S+]([O-])c3ccccc3)cc2[nH]1` (stereo not shown) [OXF, oxfendazole] came in with an equilibrium dissociation constant (Kd) of 5.8 µM. This lies in the single-digit micromolar range.
